From ChEMBL document CHEMBL4138197, “Design, synthesis and pharmacological evaluation of N-(5-chloro-2,4-dihydroxybenzoyl)-(R)-N-arylmethyl-1,2,3,4-tetrahydro-3-isoquinolinecarboxamides as potent Hsp90 inhibitors” (Eur J Med Chem, 2018)
The source made the active and inactive calls. The calls are words filed in the database; no cut-off is given here.

Key:
[1] = test system: MDA-MB-453; assay: Induction of apoptosis in human MDA-MB-453 cells assessed as increase in cleaved PARP activity at 0.25 uM up to 48 hrs in presence of z-VAD-fmk by Western blot analysis; type: functional, cell-based
[2] = test system: MCF7; assay: Antiproliferative activity against human MCF7 cells by SRB assay; type: functional, cell-based
[3] = target: Heat shock protein HSP 90-alpha (Homo sapiens) (UniProt P07900); assay: Inhibition of HSP90alpha in human MDA-MB-453 cells assessed as down-regulation of EGFR levels by Western blot analysis; type: cell-based
[4] = test system: MDA-MB-453; assay: Induction of apoptosis in human MDA-MB-453 cells assessed as necrotic cells at 0.25 uM after 48 hrs by Annexin V-FITC/propidium iodide-staining based flow cytometry (reference value: 0.01%); type: functional
[5] = test system: PC-3; assay: Antiproliferative activity against human PC3 cells by SRB assay; type: functional, cell-based
[6] = target: T1, Heat shock protein HSP90 (Homo sapiens) (UniProt P07900+P08238); assay: Inhibition of HSP90 in human MDA-MB-453 cells assessed as downmodulation of IKKbeta expression at 0.25 uM up to 48 hrs by Western blot analysis; type: cell-based
[7] = test system: MDA-MB-453; assay: Induction of apoptosis in human MDA-MB-453 cells assessed as increase in cleaved caspase3 activity at 0.25 uM up to 48 hrs by Western blot analysis; type: functional, cell-based
[8] = test system: MDA-MB-453; assay: Induction of apoptosis in human MDA-MB-453 cells assessed as increase in cleaved PARP activity at 0.25 uM up to 48 hrs by Western blot analysis; type: functional, cell-based
[9] = test system: MDA-MB-453; assay: Induction of apoptosis in human MDA-MB-453 cells assessed as early apoptotic cells at 0.25 uM after 48 hrs by Annexin V-FITC/propidium iodide-staining based flow cytometry (reference value: 1.65%); type: functional
[10] = target: T2, Inhibitor of nuclear factor kappa-B kinase subunit alpha (Homo sapiens) (UniProt O15111); assay: Induction of IKKalpha association to hsp27 in human MDA-MB-453 cells at 0.25 uM after 6 hrs by immunoprecipitation and Western analysis; type: cell-based
T2 sequence (whole entry): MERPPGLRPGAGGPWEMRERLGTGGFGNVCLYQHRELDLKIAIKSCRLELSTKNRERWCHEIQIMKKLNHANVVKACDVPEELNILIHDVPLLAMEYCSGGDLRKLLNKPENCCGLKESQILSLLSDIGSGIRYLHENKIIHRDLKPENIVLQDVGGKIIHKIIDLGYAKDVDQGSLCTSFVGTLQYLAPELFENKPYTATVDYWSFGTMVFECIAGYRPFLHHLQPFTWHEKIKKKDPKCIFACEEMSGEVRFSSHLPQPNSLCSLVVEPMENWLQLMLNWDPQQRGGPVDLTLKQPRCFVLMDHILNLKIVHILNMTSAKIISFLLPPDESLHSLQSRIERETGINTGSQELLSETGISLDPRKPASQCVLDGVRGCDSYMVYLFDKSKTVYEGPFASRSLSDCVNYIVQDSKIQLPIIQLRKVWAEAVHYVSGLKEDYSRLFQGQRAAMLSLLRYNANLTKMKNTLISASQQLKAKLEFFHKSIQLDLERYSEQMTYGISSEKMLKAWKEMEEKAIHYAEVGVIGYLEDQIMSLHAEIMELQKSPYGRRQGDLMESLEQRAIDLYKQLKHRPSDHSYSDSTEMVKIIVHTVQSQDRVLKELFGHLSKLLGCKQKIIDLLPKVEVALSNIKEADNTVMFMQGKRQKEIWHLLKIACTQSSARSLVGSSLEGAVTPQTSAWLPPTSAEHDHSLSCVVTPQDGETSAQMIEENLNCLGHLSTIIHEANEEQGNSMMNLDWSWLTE

[11] = target: NF-kappa-B essential modulator (Homo sapiens) (UniProt Q9Y6K9); assay: Induction of IKKgamma association to hsp27 in human MDA-MB-453 cells at 0.25 uM after 6 hrs by immunoprecipitation and Western analysis; type: cell-based
[12] = target: T1, Heat shock protein HSP90 (Homo sapiens); assay: Inhibition of HSP90 in human MDA-MB-453 cells assessed as suppression of TNFalpha-induced NFkappaB activation by measuring reduction in IKBalpha degradation at 0.25 uM after 24 hrs by Western blot analysis; type: cell-based
[13] = test system: MDA-MB-453; assay: Cell cycle arrest in human MDA-MB-453 cells assessed as increase in accumulation at G0/G1 phase at 0.25 to 1 uM after 12 hrs by propidium iodide-staining based flow cytometry; type: functional
[14] = test system: MDA-MB-453; assay: Induction of apoptosis in human MDA-MB-453 cells assessed as early apoptotic cells at 4 uM after 48 hrs by Annexin V-FITC/propidium iodide-staining based flow cytometry (reference value: 1.65%); type: functional
[15] = test system: HCT-116; assay: Antiproliferative activity against human HCT116 cells by SRB assay; type: functional, cell-based
[16] = test system: MDA-MB-453; assay: Induction of apoptosis in human MDA-MB-453 cells assessed as increase in cleaved caspase7 activity at 0.25 uM up to 48 hrs by Western blot analysis; type: functional, cell-based
[17] = target: T3, MAP kinase p38 (Homo sapiens) (UniProt O15264+Q15759+Q16539+P53778); assay: Induction of p38 in human MDA-MB-453 cells assessed as upregulation of Hsp27 phosphorylation at Ser82 at 0.25 uM after 2 hrs in presence of […] by Western blot analysis; type: cell-based
[18] = target: T3, MAP kinase p38 (Homo sapiens); assay: Induction of p38 phosphorylation in human MDA-MB-453 cells at 0.25 uM after 48 hrs in presence of […] by Western blot analysis; type: cell-based
[19] = target: Heat shock protein HSP 90-alpha (Homo sapiens) (UniProt P07900); assay: Inhibition of HSP90alpha in human MDA-MB-453 cells assessed as upregulation of HSP70 levels by Western blot analysis; type: cell-based
[20] = target: T3, MAP kinase p38 (Homo sapiens); assay: Induction of p38 phosphorylation in human MDA-MB-453 cells at 0.25 uM after 48 hrs by Western blot analysis; type: cell-based

Sequence of NF-kappa-B essential modulator (Homo sapiens) (Q9Y6K9 whole entry): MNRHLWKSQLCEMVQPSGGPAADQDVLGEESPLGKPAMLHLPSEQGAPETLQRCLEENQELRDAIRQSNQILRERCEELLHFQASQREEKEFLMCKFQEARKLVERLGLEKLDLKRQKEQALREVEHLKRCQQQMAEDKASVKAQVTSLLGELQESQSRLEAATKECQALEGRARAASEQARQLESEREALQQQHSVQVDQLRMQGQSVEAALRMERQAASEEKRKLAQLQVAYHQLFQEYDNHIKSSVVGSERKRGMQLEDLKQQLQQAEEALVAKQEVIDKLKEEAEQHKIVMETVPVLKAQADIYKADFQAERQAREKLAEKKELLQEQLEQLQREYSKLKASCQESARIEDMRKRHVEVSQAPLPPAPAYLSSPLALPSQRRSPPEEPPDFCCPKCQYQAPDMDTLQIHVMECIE

O=C(NCc1ccncc1)[C@H]1Cc2ccccc2CN1C(=O)c1cc(Cl)c(O)cc1O
Activity [1]: inactive | Activity [2]: Active | inhibition [3]: Dose-dependent effect | Activity [4]: 0.02% | Activity [5]: Active | inhibition [6]: Active | Activity [7]: Active | Activity [8]: Active | Activity [9]: 4.26% | Activity [10]: Active | Activity [11]: Active | inhibition [12]: Active | Activity [13]: Active | Activity [14]: 23.49% | Activity [15]: Active | Activity [16]: Active | Activity [17]: inactive | Activity [18]: inactive | inhibition [19]: Dose-dependent effect | Activity [20]: Active
